Data: ChEMBL document CHEMBL3507680, “University of Dundee, Gates Library screen for HepG2 cell viability”

Assay: Human HepG2 cell viability assay in 384 well format
Format: toxicity, cell-based
Design: dose 125 nL, time 70.5 hour; cytotoxicity at 70.5 h: concentration not given beside the values
Settings: HepG2 cells, read-out: Inhibition

## COc1cccc2c1ccn2CCC(=O)Nc1c2c(nn1C)CSC2
  cytotoxicity at 70.5 h: -11.9%

## CC(C)C1Nc2ccccc2C(=O)N1CC(=O)Nc1nc2c(s1)CCC2 (configuration not stated)
  cytotoxicity at 70.5 h: -15.3%

## Cc1nn(C2CCS(=O)(=O)C2)c(O)c1Cc1cccc(Cl)c1 (configuration not stated)
  cytotoxicity at 70.5 h: -17.9%

## CC(C)NC(=O)Nc1ccc2c(c1)ncn2CC(=O)NCCN(C)C
  cytotoxicity at 70.5 h: -12.7%

## O=c1c(NCc2ccncc2)c(NCC(O)CN2CCOCC2)c1=O (configuration not stated)
  cytotoxicity at 70.5 h: -17.9%

## CN(C)CCNC(=O)Cn1cnc2cc(NC(=O)C3CC3)ccc21
  cytotoxicity at 70.5 h: -10.6%

## CC(C)(CO)Nc1c(NCc2ccncc2)c(=O)c1=O
  cytotoxicity at 70.5 h: -9.44%

## Cc1cccc2c1ccn2CCC(=O)Nc1c2c(nn1C)CSC2
  cytotoxicity at 70.5 h: -7.62%

## CC1CC(=O)c2cc(C(=O)N3CCN(C)CC3)c(=O)[nH]c2C1 (configuration not stated)
  cytotoxicity at 70.5 h: -5.53%

## O=c1c(NCCNCCO)c(N2CCN(c3ccccc3)CC2)c1=O
  cytotoxicity at 70.5 h: -6.86%

## CC(C)(CO)Nc1c(NCc2ccccn2)c(=O)c1=O
  cytotoxicity at 70.5 h: -8.21%

## CC(C)CC(=O)Nc1ccc2c(c1)ncn2CC(=O)NCCN(C)C
  cytotoxicity at 70.5 h: -6.17%

## CC(C)c1nnc(NC(=O)CN2C(=O)c3ccccc3NC2C(C)C)s1 (configuration not stated)
  cytotoxicity at 70.5 h: -13%

## COc1cc(OC)cc(-c2noc(CC(N)c3ccccc3)n2)c1 (configuration not stated)
  cytotoxicity at 70.5 h: -5.26%

## COc1c[nH]c(C(=O)Nc2nc(C(C)(C)C)cs2)cc1=O
  cytotoxicity at 70.5 h: -0.552%

## CC(C)CNC(=O)c1cccc(Oc2ccc3nncn3n2)c1
  cytotoxicity at 70.5 h: -9.71%

## Cn1ccc2cc(C(=O)NC3CCOC(C)(C)C3)ccc21 (configuration not stated)
  cytotoxicity at 70.5 h: 7.49%

## COc1cc(C2SC(C)=Nc3c2c(=O)[nH]n3C2CCCC2)ccc1O (configuration not stated)
  cytotoxicity at 70.5 h: -9.1%

## Cc1cc(N2CCCCC2)nc(N(CCO)CCO)c1C#N
  cytotoxicity at 70.5 h: -8.15%

## Cc1cc(NCc2ccccc2)nc2[nH]nc(N)c12
  cytotoxicity at 70.5 h: -12.7%

## O=C(Cn1nc2c(cc1=O)CSCC2)N[C@@H](Cc1ccccc1)C(=O)O
  cytotoxicity at 70.5 h: -5.32%

## COCCn1ccc(=O)c(OCC(=O)Nc2ccc(OC)cc2)c1C
  cytotoxicity at 70.5 h: -12%

## Cn1[nH]c(CNc2cccc(Cl)c2)nc1=O
  cytotoxicity at 70.5 h: -0.326%

## Cc1cc(N2CCOCC2)nc(N(C)CCO)c1C#N
  cytotoxicity at 70.5 h: -5.45%

## COc1ccc(-c2csc3c2c(N)nc(=O)n3CC(N)=O)cc1
  cytotoxicity at 70.5 h: -14.6%

## O=C1CC(c2ccsc2)c2cnn(C3CCCC3)c2N1 (configuration not stated)
  cytotoxicity at 70.5 h: -9.93%

## CCOC(=O)Cn1c(=O)nc(N)c2c(-c3ccc(OC)cc3)csc21
  cytotoxicity at 70.5 h: -12.9%

## CN(C)S(=O)(=O)c1ccc(-c2nc(C#N)c(NC3CCCCC3)o2)o1
  cytotoxicity at 70.5 h: -9.49%

## O=C(Cn1ncc2c(c1=O)CCCCC2)Nc1cccc2[nH]ccc12
  cytotoxicity at 70.5 h: 3.91%

## Cn1cc(NC(=O)CNC(=O)N2CCN(c3cccc(Cl)c3)CC2)cn1
  cytotoxicity at 70.5 h: -4.74%

## CC1=Nc2c(c(=O)[nH]n2C2CCCCC2)C(c2cccnc2)S1 (configuration not stated)
  cytotoxicity at 70.5 h: -12%

## CC1=Nc2c(c(=O)[nH]n2C(C)C)C(c2ccc3c(c2)OCCO3)S1 (configuration not stated)
  cytotoxicity at 70.5 h: 7.71%

## C=C(C)CN1CCN(CCC(=O)Nc2ccccc2C(N)=O)CC1
  cytotoxicity at 70.5 h: -10.8%

## Cc1nnc(NC(=O)CCc2c(C)nn3cnnc3c2C)s1
  cytotoxicity at 70.5 h: -7.03%

## O=C(NCCc1c[nH]c2ccc(F)cc12)C1(n2cnnn2)CCCCC1
  cytotoxicity at 70.5 h: -22.2%

## O=C(Cn1ncc2c(c1=O)CCCC2)Nc1cccc2[nH]ccc12
  cytotoxicity at 70.5 h: 6.81%

## CNc1oc(-c2ccc(S(=O)(=O)N(C)C)o2)nc1C#N
  cytotoxicity at 70.5 h: 22.7%

## O=C(CC1CCCC1)Nc1ccc(-n2cc(Br)cn2)nc1
  cytotoxicity at 70.5 h: -2.32%

## CC(=O)Nc1ccc(Oc2ccc3c(c2)OCO3)nc1
  cytotoxicity at 70.5 h: -12.3%

## CC(C)C(=O)Nc1ccc(Oc2ccc3c(c2)OCO3)nc1
  cytotoxicity at 70.5 h: -10.1%

## O=C(COc1coc(CN2CCOCC2)cc1=O)Nc1ccc(Cl)cc1
  cytotoxicity at 70.5 h: -17.6%

## COCCn1ccc2c(NC(=O)C(C)C)cccc21
  cytotoxicity at 70.5 h: -1.52%

## COc1cccc2c1ccn2CCNC(=O)C1CCC1
  cytotoxicity at 70.5 h: -13.3%

## Cc1ccnc(NC(=O)C2(n3cnnn3)CCCCC2)c1
  cytotoxicity at 70.5 h: -23.1%

## O=C(NCC(=O)N1CCc2ccccc2C1)c1cnccn1
  cytotoxicity at 70.5 h: -6.74%

## O=c1cc2c(nn1CN1CCC(c3ccccc3)CC1)CCC2
  cytotoxicity at 70.5 h: -17.6%

## CC(C)NC(=O)[C@H](C)NC(=O)N1CCN(c2ccc(Cl)cc2)CC1
  cytotoxicity at 70.5 h: -15.6%

## O=c1cc2c(nn1CN1CCSCC1)CCC2
  cytotoxicity at 70.5 h: -19.6%

## COc1ccc2nnc(CCCC(=O)NCc3ccccc3OC)n2n1
  cytotoxicity at 70.5 h: -15.5%

## COc1ccc2c(c1)c(C(=O)Nc1nnn[nH]1)cn2C
  cytotoxicity at 70.5 h: -13.5%

## O=C(NCCc1ccccn1)C1(n2cnnn2)CCCCC1
  cytotoxicity at 70.5 h: 14.5%

## COc1ccc(-n2ncc3c2NC(=O)CSC3CC(C)C)cc1 (configuration not stated)
  cytotoxicity at 70.5 h: -19.5%

## Cc1cc(C(=O)N2C[C@@H]3CN(S(C)(=O)=O)CCO[C@@H]3C2)c(C)o1
  cytotoxicity at 70.5 h: 19.5%

## CN(C)C(=O)N[C@@H]1CN(S(C)(=O)=O)[C@@H]2CCCO[C@@H]21
  cytotoxicity at 70.5 h: 47.9%

## Cc1nc(C(=O)N2C[C@@H]3CN(S(C)(=O)=O)CCO[C@@H]3C2)cs1
  cytotoxicity at 70.5 h: -1.34%

## Cc1noc(C)c1CN1CC2(CCCCN2c2cncnc2)CC1=O (configuration not stated)
  cytotoxicity at 70.5 h: -3.04%

## Cc1ccc(C(=O)N2C[C@@H]3CN(S(C)(=O)=O)CCO[C@@H]3C2)s1
  cytotoxicity at 70.5 h: 0.775%

## Cc1nc(-c2ccc(F)cc2)nc2c1CCN(C(=O)CN(C)C)CC2
  cytotoxicity at 70.5 h: -1.65%

## COc1ccc(CC(=O)N2CC[C@@H]3NC(=O)CC[C@@H]32)cc1
  cytotoxicity at 70.5 h: 3.62%

## COc1cccc(CC(=O)N2CC[C@H]3[C@@H]2CCC(=O)N3C)c1
  cytotoxicity at 70.5 h: 4.41%

## COc1cc(N2CCCn3cnc(COCCO)c3C2)ncn1
  cytotoxicity at 70.5 h: 0.488%

## c1cnc(N2CCO[C@H]3[C@H](OCCN4CCOCC4)CC[C@@H]32)nc1
  cytotoxicity at 70.5 h: -2.53%

## COc1cccc(CC(=O)N2CC[C@@H]3NC(=O)CC[C@@H]32)c1
  cytotoxicity at 70.5 h: -0.893%

## CC(C)NC(=O)C1CN(Cc2cccs2)Cc2ccnn2C1 (configuration not stated)
  cytotoxicity at 70.5 h: 3.45%

## Cc1ncsc1C(=O)N1CC[C@@H]2[C@@H](CC1)OCCN2c1cccnc1
  cytotoxicity at 70.5 h: -8.57%

## CC(=O)N1CCS(=O)(=O)[C@@H]2CCN(S(=O)(=O)CC(C)C)CC[C@@H]21
  cytotoxicity at 70.5 h: -6.44%

## COCc1nn(C)c2c1CN(C(=O)c1ccno1)CC2
  cytotoxicity at 70.5 h: -9.37%

## Cc1nocc1C(=O)N1CCCC2(CCN(c3ccsc3)C2=O)C1 (configuration not stated)
  cytotoxicity at 70.5 h: -6.39%

## Cc1oncc1C(=O)N1CCCc2c(C#N)nn(C)c2C1
  cytotoxicity at 70.5 h: -7.62%

## CC(C)n1c(=O)c2ccccc2n(CCN(C)C)c1=O
  cytotoxicity at 70.5 h: -8.7%

## Cc1ccc2c(c1)C(NC(C)C)CC21CCNCC1 (configuration not stated)
  cytotoxicity at 70.5 h: -1.86%

## Cc1ccc2c(c1)C1(CCNCC1)CC2NC(C)C (configuration not stated)
  cytotoxicity at 70.5 h: -2.54%

## CC(C)NC1CC2(CCNCC2)c2cc(F)ccc21 (configuration not stated)
  cytotoxicity at 70.5 h: -2.34%

## Cc1nc(N2CCCC2)nc2c1CCN(C(=O)CN(C)C)CC2
  cytotoxicity at 70.5 h: -3.18%

## CN(C)C(=O)N[C@@H]1CN(C2CCOCC2)[C@@H]2CCCO[C@@H]21
  cytotoxicity at 70.5 h: -2.52%

## O=C(NC1CCC1)[C@H]1C[C@@H]2[C@@H](C1)OCCN2CC1CC1
  cytotoxicity at 70.5 h: 0.808%

## O=C(c1ccoc1)N1CCC2(CCC(=O)N2Cc2ccncc2)CC1
  cytotoxicity at 70.5 h: 5.56%

## CN(C)C(=O)CO[C@@H]1CC[C@H]2[C@H]1OCCN2c1ncccn1
  cytotoxicity at 70.5 h: 4.77%

## Cc1cccc(CN2Cc3[nH]nc(COCC4CC4)c3C2)n1
  cytotoxicity at 70.5 h: 3.89%

## COc1cccc(CN2CCC3(CCN(c4ncc(C)cn4)CC3)C2)c1
  cytotoxicity at 70.5 h: 1.49%

## O=C(CO[C@@H]1CC[C@H]2[C@H]1OCCN2c1ncccn1)N1CCCC1
  cytotoxicity at 70.5 h: -0.322%

## Cc1cccc(CN2Cc3[nH]nc(COCc4nccs4)c3C2)n1
  cytotoxicity at 70.5 h: -0.324%

## Cc1ccc(N2CCO[C@H]3[C@H](OCC(=O)N4CCCC4)CC[C@@H]32)cc1
  cytotoxicity at 70.5 h: -1.99%

## COc1cccc(CN2CCC3(CC2)CCN(c2ncc(F)cn2)C3)c1
  cytotoxicity at 70.5 h: 0.909%

## CNC(=O)COC1COC2(CCN(c3ccc(C)nn3)CC2)C1 (configuration not stated)
  cytotoxicity at 70.5 h: 0.115%

## N#Cc1cccc(CN2CC3(CCCCN3c3cccnc3)CC2=O)c1 (configuration not stated)
  cytotoxicity at 70.5 h: -1.1%

## CCS(=O)(=O)N1Cc2nnn(C)c2C(COCCN(C)C)C1 (configuration not stated)
  cytotoxicity at 70.5 h: -0.313%

## CC(C)CN1CCS(=O)(=O)[C@@H]2CCN(S(=O)(=O)c3ccccc3)CC[C@@H]21
  cytotoxicity at 70.5 h: -1.95%

## COCCN1C(=O)CC[C@]12CC[C@@H](NCc1cccc(C)n1)CC2
  cytotoxicity at 70.5 h: 0.785%

## O=C(c1cc[nH]n1)N1CC[C@@H]2CN(Cc3ccccc3)S(=O)(=O)[C@@H]2CC1
  cytotoxicity at 70.5 h: -13.3%

## CC(C)CN1CCS(=O)(=O)[C@@H]2CCN(S(=O)(=O)N(C)C)CC[C@@H]21
  cytotoxicity at 70.5 h: -5.76%

## COc1ccc(CN2CC[C@@H]3CN(S(C)(=O)=O)CCO[C@@H]3C2)cc1
  cytotoxicity at 70.5 h: -2.97%

## CS(=O)(=O)N1CCCC12CCN(Cc1nccs1)CC2
  cytotoxicity at 70.5 h: -3.49%

## Cn1nc(COCC2CC2)c2c1CN(C(=O)c1ccno1)CC2
  cytotoxicity at 70.5 h: -9.87%

## COCCN1C(=O)CC[C@]12CC[C@@H](NCc1nccs1)CC2
  cytotoxicity at 70.5 h: -6.2%

## CN1CCN(CC2CC2)C(=O)C12CCN(C(=O)c1ccnnc1)CC2
  cytotoxicity at 70.5 h: -5.46%

## CS(=O)(=O)N1CCO[C@@H]2CN(Cc3ccc(F)cc3)CC[C@@H]2C1
  cytotoxicity at 70.5 h: -4.41%

## CC(=O)N1CC[C@@H]2CN(Cc3ccncc3)S(=O)(=O)[C@@H]2CC1
  cytotoxicity at 70.5 h: 0.262%

## CCS(=O)(=O)N1CC[C@@H]2[C@H](CC1)N(CC(C)C)CCS2(=O)=O
  cytotoxicity at 70.5 h: -1.74%

## Cc1ccc(C(=O)N2CCO[C@H]3[C@H](OCc4ccccn4)CC[C@@H]32)o1
  cytotoxicity at 70.5 h: -3.92%

## Cc1ccc(C(=O)N2C[C@@H]3CCCO[C@@H]3[C@H](N3CCOCC3)C2)cn1
  cytotoxicity at 70.5 h: 2.11%

## COc1cccc(CN2CCC3(CC2)CCN(c2ncccn2)C3)c1
  cytotoxicity at 70.5 h: 2.21%

## Cc1cc(CN2C[C@@H]3CCCO[C@@H]3[C@H](N(C)C(C)C)C2)no1
  cytotoxicity at 70.5 h: -3.76%

## Cc1ncsc1CN1C[C@@H]2CCCO[C@@H]2[C@H](N(C)C(C)C)C1
  cytotoxicity at 70.5 h: -4.74%

## COc1ncccc1CN1C[C@@H]2OCCN(CCN(C)C)[C@@H]2C1
  cytotoxicity at 70.5 h: -3.67%

## COc1ccc2c(c1)C1(CCN(Cc3cccnc3)CC1)N(C)CC2
  cytotoxicity at 70.5 h: -1.98%

## COc1cc(N2CCCn3cnc(COC(C)C)c3C2)ncn1
  cytotoxicity at 70.5 h: 13.3%
